Measurements reported in patent US8481544B2, “Antibacterial compositions” (Biota Europe Limited, priority 2006, dated 2013).
≈ marks a conversion by molar mass, not a printed value.

System: Enterococcus faecalis ATCC 29212
Test: MIC against Enterococcus faecalis ATCC 29212
Format: cell-based
Settings: ATCC29212; Enterococcus faecalis ATCC 29212; read-out: MICs against Enterococcus faecalis, Activity
Method in brief: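 MIC measured by broth microdilution or agar dilution following CLSI guidelines (M7-A7 for aerobes, M11-A6 for anaerobes).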

Structure (SMILES) | MIC [µg/mL]
CCOC(=O)Nc1nc2cc(-c3cccnc3)cc(-c3ccccn3)c2s1 [Example 174, (5-Pyridin-3-yl-7-pyridin-2-yl-benzothiazol-2-yl)-carbamic acid ethyl ester] | < 0.25
CCNC(=O)Nc1nc2cc(-c3cccnc3)cc(Br)c2s1 [Example 3, 1-(7-Bromo-5-pyridin-3-yl-benzothiazol-2-yl)-3-ethyl-urea] | 0.25 to 1 (≈ 0.663 to 2.65 µM)
CCNC(=O)Nc1nc2cc(-c3ccn(C)c(=O)c3)cc(-c3ccccn3)c2s1 [Example 51, 1-Ethyl-3-[5-(1-methyl-2-oxo-1,2-dihydro-pyridin-4-yl)-7-pyridin-2-yl-benzothiazol-2-yl]-urea] | < 0.25
CCNC(=O)Nc1nc2cc(-c3cnccn3)cc(-c3cnc(N)nc3)c2s1 [Example 73, 1-[7-(2-Amino-pyrimidin-5-yl)-5-pyrazin-2-yl-benzothiazol-2-yl]-3-ethyl-urea] | 2 to 16 (≈ 5.1 to 40.8 µM)
CCNC(=O)Nc1nc2cc(-c3cncc(C)c3)cc(-c3ccccn3)c2s1 [Example 36, 1-Ethyl-3-[5-(5-methyl-pyridin-3-yl)-7-pyridin-2-yl-benzothiazol-2-yl]-urea] | < 0.25
CCNC(=O)Nc1nc2cc(-c3cnc4c(c3)CCC(=O)N4)cc(-c3ccccn3)c2s1 [Example 71, 1-Ethyl-3-[5-(7-oxo-5,6,7,8-tetrahydro-[1,8]naphthyridin-3-yl)-7-pyridin-2-yl-benzothiazol-2-yl]-urea] | < 0.25
CCNC(=O)Nc1nc2cc(-c3ccc(C#N)nc3)cc(-c3ccccn3)c2s1 [Example 33, 1-[5-(6-Cyano-pyridin-3-yl)-7-pyridin-2-yl-benzothiazol-2-yl]-3-ethyl-urea] | < 0.25
CCNC(=O)Nc1nc2cc(-c3cnc4c(c3)NC(=O)CO4)cc(-c3ccccn3)c2s1 [Example 54, 1-Ethyl-3-[5-(2-oxo-2,3-dihydro-1H-pyrido[2,3-b][1,4]oxazin-7-yl)-7-pyridin-2-yl-benzothiazol-2-yl]-urea] | 0.25 to 1 (≈ 0.56 to 2.24 µM)
CCNC(=O)Nc1nc2cc(-c3cccnc3C)cc(-c3ccccn3)c2s1 [Example 52, 1-Ethyl-3-[5-(2-methyl-pyridin-3-yl)-7-pyridin-2-yl-benzothiazol-2-yl]-urea] | 0.25 to 1 (≈ 0.642 to 2.57 µM)
CCNC(=O)Nc1nc2cc(-c3ccc(N(C)C)nc3)cc(-c3ccccn3)c2s1 [Example 38, 1-[5-(6-Dimethylamino-pyridin-3-yl)-7-pyridin-2-yl-benzothiazol-2-yl]-3-ethyl-urea] | 0.25 to 1 (≈ 0.597 to 2.39 µM)
CCNC(=O)Nc1nc2cc(-c3cccnc3)cc(N)c2s1 [Example 149, 1-(7-Amino-5-pyridin-3-yl-benzothiazol-2-yl)-3-ethyl-urea] | 2 to 16 (≈ 6.38 to 51.1 µM)
CCNC(=O)Nc1nc2cc(-c3cncc(N4CCN(C)CC4)c3)cc(-c3ccccn3)c2s1 [Example 62, 1-Ethyl-3-{5-[5-(4-methyl-piperazin-1-yl)-pyridin-3-yl]-7-pyridin-2-yl-benzothiazol-2-yl}-urea] | 0.25 to 1 (≈ 0.528 to 2.11 µM)
CCNC(=O)Nc1nc2cc(-c3cccnc3)cc(C(=O)NCC)c2s1 [Example 152, 2-(3-Ethyl-ureido)-5-pyridin-3-yl-benzothiazole-7-carboxylic acid ethylamide] | 2 to 16 (≈ 5.41 to 43.3 µM)
CCNC(=O)Nc1nc2cc(-c3cccnc3)cc(-c3ccc(CN4CCOCC4)cn3)c2s1 [Example 120, 1-Ethyl-3-[7-(5-morpholin-4-ylmethyl-pyridin-2-yl)-5-pyridin-3-yl-benzothiazol-2-yl]-urea] | 0.25 to 1 (≈ 0.527 to 2.11 µM)
CCNC(=O)Nc1nc2cc(-c3cnc(N(C)C)nc3)cc(-c3cccnc3)c2s1 [Example 25, 1-[5-(2-Dimethylamino-pyrimidin-5-yl)-7-pyridin-3-yl-benzothiazol-2-yl]-3-ethyl-urea] | 0.25 to 1 (≈ 0.596 to 2.38 µM)
CCNC(=O)Nc1nc2cc(-c3cnccn3)cc(-c3cnccn3)c2s1 [Example 10, 1-(5,7-Di-pyrazin-2-yl-benzothiazol-2-yl)-3-ethyl-urea] | < 0.25
CCNC(=O)Nc1nc2cc(-c3cncc(OC)c3)cc(-c3cccnc3)c2s1 [Example 31, 1-Ethyl-3-[5-(5-methoxy-pyridin-3-yl)-7-pyridin-3-yl-benzothiazol-2-yl]-urea] | 0.25 to 1 (≈ 0.617 to 2.47 µM)
CCNC(=O)Nc1nc2cc(-c3ccc(CN4CCOCC4)nc3)cc(-c3ccccn3)c2s1 [Example 59, 1-Ethyl-3-[5-(6-morpholin-4-ylmethyl-pyridin-3-yl)-7-pyridin-2-yl-benzothiazol-2-yl]-urea] | < 0.25
CCNC(=O)Nc1nc2cc(-c3cnn(C)c3)cc(Br)c2s1 [Example 6, 1-[7-Bromo-5-(1-methyl-1H-pyrazol-4-yl)-benzothiazol-2-yl]-3-ethyl-urea] | 0.25 to 1 (≈ 0.657 to 2.63 µM)
CCNC(=O)Nc1nc2cc(-c3cccnc3)cc(-n3cccn3)c2s1 [Example 140, 1-Ethyl-3-(7-pyrazol-1-yl-5-pyridin-3-yl-benzothiazol-2-yl)-urea] | 0.25 to 1 (≈ 0.686 to 2.74 µM)
CCNC(=O)Nc1nc2cc(-c3cnc(C#N)nc3)cc(-c3cccnc3)c2s1 [Example 32, 1-[5-(2-Cyano-pyrimidin-5-yl)-7-pyridin-3-yl-benzothiazol-2-yl]-3-ethyl-urea] | 2 to 16 (≈ 4.98 to 39.9 µM)

Other lines, results leading:

MIC [µg/mL] | Structure (SMILES)
< 0.25 | CCNC(=O)Nc1nc2cc(-c3cccnc3)cc(-c3cccc(C(F)(F)F)n3)c2s1 [Example 89, 1-Ethyl-3-[5-pyridin-3-yl-7-(6-trifluoromethyl-pyridin-2-yl)-benzothiazol-2-yl]-urea]
< 0.25 | CCNC(=O)Nc1nc2cc(-c3cccnc3)cc(-c3cccc(OC)n3)c2s1 [Example 167, 1-Ethyl-3-[7-(6-methoxy-pyridin-2-yl)-5-pyridin-3-yl-benzothiazol-2-yl]-urea]
0.25 to 1 (≈ 0.688 to 2.75 µM) | CCNC(=O)Nc1nc2cc(-c3cccnc3)cc(-c3ccc[nH]3)c2s1 [Example 90, 1-Ethyl-3-[5-pyridin-3-yl-7-(1H-pyrrol-2-yl)-benzothiazol-2-yl]-urea]
< 0.25 | CCNC(=O)Nc1nc2cc(-c3cccnc3)cc(-c3ccc(C)cn3)c2s1 [Example 175, 1-Ethyl-3-[7-(5-methyl-pyridin-2-yl)-5-pyridin-3-yl-benzothiazol-2-yl]-urea]
< 0.25 | CCNC(=O)Nc1nc2cc(-c3cccnc3)cc(-c3nccc4cc[nH]c34)c2s1 [Example 115, 1-Ethyl-3-[5-pyridin-3-yl-7-(1H-pyrrolo[2,3-c]pyridin-7-yl)-benzothiazol-2-yl]-urea]
0.25 to 1 (≈ 0.597 to 2.39 µM) | CCNC(=O)Nc1nc2cc(-c3cccnc3)cc(-c3ccc(C(N)=O)cn3)c2s1 [Example 98, 6-[2-(3-Ethyl-ureido)-5-pyridin-3-yl-benzothiazol-7-yl]-nicotinamide]
0.25 to 1 (≈ 0.639 to 2.55 µM) | CCNC(=O)Nc1nc2cc(-c3cncc(N)n3)cc(-c3cccnc3)c2s1 [Example 45, 1-[5-(6-Amino-pyrazin-2-yl)-7-pyridin-3-yl-benzothiazol-2-yl]-3-ethyl-urea]
2 to 16 (≈ 4.93 to 39.5 µM) | CCNC(=O)Nc1nc2cc(-c3cccnc3)cc(-c3ncccc3CO)c2s1 [Example 109, 1-Ethyl-3-[7-(3-hydroxymethyl-pyridin-2-yl)-5-pyridin-3-yl-benzothiazol-2-yl]-urea]
< 0.25 | CCNC(=O)Nc1nc2cc(-c3cccnc3)cc(-c3nc4ccccc4s3)c2s1 [Example 117, 1-Ethyl-3-(5′-pyridin-3-yl-[2,7′]bibenzothiazolyl-2′-yl)-urea]
0.25 to 1 (≈ 0.64 to 2.56 µM) | CCNC(=O)Nc1nc2cc(-c3ccc(N)nc3)cc(-c3cccnc3)c2s1 [Example 17, 1-[5-(6-Amino-pyridin-3-yl)-7-pyridin-3-yl-benzothiazol-2-yl]-3-ethyl-urea]
0.25 to 1 (≈ 0.661 to 2.64 µM) | CCNC(=O)Nc1nc2cc(-c3cccnc3)cc(-c3cnn(C)c3)c2s1 [Example 83, 1-Ethyl-3-[7-(1-methyl-1H-pyrazol-4-yl)-5-pyridin-3-yl-benzothiazol-2-yl]-urea]
0.25 to 1 (≈ 0.637 to 2.55 µM) | CCNC(=O)Nc1nc2cc(-c3cccc(F)c3)cc(-c3cccnc3)c2s1 [Example 28, 1-Ethyl-3-[5-(3-fluoro-phenyl)-7-pyridin-3-yl-benzothiazol-2-yl]-urea]
2 to 16 (≈ 5.28 to 42.3 µM) | CCNC(=O)Nc1nc2cc(-c3cccnc3)cc(-c3cncn3C)c2s1 [Example 164, 1-Ethyl-3-[7-(3-methyl-3H-imidazol-4-yl)-5-pyridin-3-yl-benzothiazol-2-yl]-urea]
0.25 to 1 (≈ 0.618 to 2.47 µM) | CCNC(=O)Nc1nc2cc(-c3cccnc3)cc(-c3ccc(CN)cn3)c2s1 [Example 97, 1-[7-(5-Aminomethyl-pyridin-2-yl)-5-pyridin-3-yl-benzothiazol-2-yl]-3-ethyl-urea]
0.25 to 1 (≈ 0.639 to 2.55 µM) | CCNC(=O)Nc1nc2cc(-c3cccnc3)cc(-c3cnc(N)nc3)c2s1 [Example 42, 1-[7-(2-Amino-pyrimidin-5-yl)-5-pyridin-3-yl-benzothiazol-2-yl]-3-ethyl-urea]
2 to 16 (≈ 5.11 to 40.9 µM) | CCNC(=O)Nc1nc2cc(-c3ccc(O)nc3)cc(-c3cccnc3)c2s1 [Example 16, 1-Ethyl-3-[5-(6-hydroxy-pyridin-3-yl)-7-pyridin-3-yl-benzothiazol-2-yl]-urea]
0.25 to 1 (≈ 0.655 to 2.62 µM) | CCNC(=O)Nc1nc2cc(-c3cccnc3)cc(-c3cscn3)c2s1 [Example 158, 1-Ethyl-3-(5-pyridin-3-yl-7-thiazol-4-yl-benzothiazol-2-yl)-urea]
0.25 to 1 (≈ 0.603 to 2.41 µM) | CCNC(=O)Nc1nc2cc(-c3ccc4nccn4c3)cc(-c3cccnc3)c2s1 [Example 22, 1-Ethyl-3-(5-imidazo[1,2-a]pyridin-6-yl-7-pyridin-3-yl-benzothiazol-2-yl)-urea]
0.25 to 1 (≈ 0.618 to 2.47 µM) | CCNC(=O)Nc1nc2cc(-c3cccnc3)cc(-c3ccccc3OC)c2s1 [Example 87, 1-Ethyl-3-[7-(2-methoxy-phenyl)-5-pyridin-3-yl-benzothiazol-2-yl]-urea]
< 0.25 | CCNC(=O)Nc1nc2cc(-c3ccc(C#N)nc3)cc(-c3cccnc3)c2s1 [Example 27, 1-[5-(6-Cyano-pyridin-3-yl)-7-pyridin-3-yl-benzothiazol-2-yl]-3-ethyl-urea]
0.25 to 1 (≈ 0.577 to 2.31 µM) | CCNC(=O)Nc1nc2cc(-c3ccc(C(=O)OC)nc3)cc(-c3cccnc3)c2s1 [Example 26, 5-[2-(3-Ethyl-ureido)-7-pyridin-3-yl-benzothiazol-5-yl]-pyridine-2-carboxylic acid methyl ester]

System: not given
Test: not given
Settings: not given

Structure (SMILES) | melting point [°C]
CCOC(=O)Nc1nc2cc(-c3cccnc3)cc(-c3ccccn3)c2s1 [Example 174, (5-Pyridin-3-yl-7-pyridin-2-yl-benzothiazol-2-yl)-carbamic acid ethyl ester] | 235
CCNC(=O)Nc1nc2cc(-c3cccnc3)cc(Br)c2s1 [Example 3, 1-(7-Bromo-5-pyridin-3-yl-benzothiazol-2-yl)-3-ethyl-urea] | 345

The remaining lines, values ahead:

melting point [°C] | Structure (SMILES)
256.7 | CCNC(=O)Nc1nc2cc(-c3cccnc3)cc(-c3cccc(C(F)(F)F)n3)c2s1 [Example 89, 1-Ethyl-3-[5-pyridin-3-yl-7-(6-trifluoromethyl-pyridin-2-yl)-benzothiazol-2-yl]-urea]
300.1 | CCNC(=O)Nc1nc2cc(-c3cccnc3)cc(-c3cccc(OC)n3)c2s1 [Example 167, 1-Ethyl-3-[7-(6-methoxy-pyridin-2-yl)-5-pyridin-3-yl-benzothiazol-2-yl]-urea]
220 | CCNC(=O)Nc1nc2cc(-c3cccnc3)cc(-c3ccc[nH]3)c2s1 [Example 90, 1-Ethyl-3-[5-pyridin-3-yl-7-(1H-pyrrol-2-yl)-benzothiazol-2-yl]-urea]
231 | CCNC(=O)Nc1nc2cc(-c3cccnc3)cc(-c3ccc(C)cn3)c2s1 [Example 175, 1-Ethyl-3-[7-(5-methyl-pyridin-2-yl)-5-pyridin-3-yl-benzothiazol-2-yl]-urea]
